Source: patent publication US20190125888A1, “TARGETED CONJUGATES AND PARTICLES AND FORMULATIONS THEREOF” (priority 2015, published 2019)
Like-named read-outs stand apart in the source and are kept apart here.

How the values were obtained:
[1] = Ligand charge of maytansinoid conjugates; assay type: physicochemical
[2] = tested on: phospho-histone H3; test: Phospho-histone H3 response in NCI-H69 tumors; assay type: in vivo, mice
Experimental: Phospho-histone H3 response in NCI-H69 tumors was measured. […] At 24 hour, adjusted phospho-histone H3 response for Conjugate 6 was about 500 (fluorescence signal) and at 48 hour it was about 2300 (fluorescence signal).

[3] = Half-life in rat liver microsomes; assay type: in vitro ADME; details: read-out: rat LM t½ (mm)
Experimental: (§1) Half-life (t1/2) of maytansinoid conjugates were measured in rat plasma and rat liver microsomes (LM). PK values of maytansinoid conjugates in NCI-H69 SCLC (small cell lung cancer) tumor cells were measured.

[4] = Chrom LogP of maytansinoid conjugates; assay type: physicochemical
[5] = tested on: human NCI-H69 SCLC; test: H69 xenograft efficacy study, tumor growth inhibition; assay type: in vivo, mice; details: for TGI % Day 11 / TGI % Day 14 / TGI % Day 18 / TGI % Day 21 / TGI % Day 25: 0.7 mg/kg once weekly for two doses
Experimental: Applicants assessed the activity of maytansinoid conjugates in vivo. In these experiments, the ability of conjugates to affect the growth of human NCI-H69 SCLC was tested. For the in vivo study, 8 week old female NCR nude mice were inoculated subcutaneously into the right flank with 2 million cells in 1:1 RPMI 1640 (Invitrogen, Carlsbad, Calif.)/Matrigel® (BD Biosciences, San Jose, Calif.). Tumor measurements were taken twice weekly, using vernier calipers. Tumor volume was calculated using the formula: V=0.5×width×width×length.
When tumors approached a volume of 200 mm^3, mice were randomized into four groups of ten animals. Mice were treated with vehicle control (10% propylene glycol in water for injection) and maytansinoid conjugates (10% propylene glycol in water for injection). Final tumor volumes were analyzed using with a one-way analysis of variance and Tukey multiple comparison test.

[6] = Pharmacokinetics study in mouse; details: in vivo
Experimental: Pharmacokinetics studies in mouse were also carried out. Half-life, Cmax and AUC values of Conjugate 6 were show in Table 10.

[7] = tested on: NCI-H524 (ATCC) human lung cancer cells; assay type: cell-based
Procedure, shortened: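 NCI-H524 cells (5,000/well) exposed to conjugates for 6 hours, washed, then grown a further 66 hours; ten-point threefold dilutions from 20 μM. Proliferation by CellTiter-Glo versus vehicle; IC50 by four-parameter nonlinear regression, measured with and without octreotide competition.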

[8] = target: human SSTR2 (Homo sapiens, UniProt P30874); test: Radioligand-receptor binding assay, [125I] somatostatin, membranes from SSTR2 expressing CHO-K1 cells
Procedure, shortened: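 CHO-K1 SSTR2 membranes incubated 4 h with 0.03 nM [125I] somatostatin and conjugates in a 10-point, 6-fold series from 10 uM. Bound radioligand measured after filtration and washing; IC50 by non-linear least-squares regression.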

[9] = tested on: NCI-H69 SCLC (small cell lung cancer) tumor cells; test: H69 tumor PK; assay type: in vivo
Experimental: as §1

[10] = Half-life in rat plasma; assay type: in vitro ADME; details: read-out: rat plasma t½ (converted)
Experimental: as §1

[11] = 1.3 mg/kg once weekly for two doses
[12] = 2 mg/kg once weekly for two doses
[13] = read-out: H524 IC50 6 h, 6 hours treatment, further 66 hours incubation
[14] = read-out: H524 IC50 with 100 μM octreotide 6 h, with 100 μM octreotide competition, 6 h treatment
[15] = 1.5 mg/kg once weekly for two doses

Chain of human SSTR2 (P30874 whole entry): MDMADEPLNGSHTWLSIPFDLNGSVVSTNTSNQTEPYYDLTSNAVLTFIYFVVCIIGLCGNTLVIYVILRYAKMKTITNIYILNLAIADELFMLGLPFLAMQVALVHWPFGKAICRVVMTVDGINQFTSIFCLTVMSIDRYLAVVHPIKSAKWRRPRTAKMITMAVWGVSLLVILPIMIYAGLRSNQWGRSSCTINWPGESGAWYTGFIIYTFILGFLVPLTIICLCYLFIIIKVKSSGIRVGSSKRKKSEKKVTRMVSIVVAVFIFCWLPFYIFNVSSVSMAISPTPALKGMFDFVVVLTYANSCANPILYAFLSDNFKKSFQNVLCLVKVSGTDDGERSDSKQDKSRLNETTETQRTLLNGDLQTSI

COc1cc2cc(c1Cl)N(C)C(=O)C[C@H](OC(=O)[C@H](C)N(C)C(=O)CCSSC(C)(C)[C@H](NC(=O)[C@@H]1CSSC[C@H](NC(=O)[C@H](N)Cc3ccccc3)C(=O)N[C@@H](Cc3ccc(O)cc3)C(=O)N[C@H](Cc3c[nH]c4ccccc34)C(=O)N[C@@H](CCCCN)C(=O)N[C@@H]([C@@H](C)O)C(=O)N1)C(N)=O)[C@]1(C)O[C@H]1[C@H](C)[C@@H]1C[C@@](O)(NC(=O)O1)[C@H](OC)/C=C/C=C(\C)C2 [Conjugate 6]
Ligand charge [1]: +2 | adjusted phospho-histone H3 response ([2]; at 24 hour): about 500 fluorescence signal | adjusted phospho-histone H3 response ([2]; at 48 hour): about 2300 fluorescence signal | half-life [3]: 2.97 h | chromatographic logP [4]: 2.06 | TGI % at day 33 ([5]; 0.7 mg/kg once weekly for three doses, day 33): 31.9% | TGI % Day 11 [5]: 55% | TGI % Day 14 [5]: 60% | TGI % Day 18 [5]: 65% | TGI % Day 21 [5]: 69% | TGI % Day 25 [5]: 59% | TGI % Day 13 [5, 11]: 69.1% | TGI % Day 17 [5, 11]: 75.6% | TGI % Day 20 [5, 11]: 76.8% | TGI % Day 24 [5, 11]: 72.7% | TGI % Day 30 [5, 11]: 72.1% | TGI % Day 13 [5, 12]: 93.4% | TGI % Day 17 [5, 12]: 96.2% | TGI % Day 20 [5, 12]: 98.2% | TGI % Day 24 [5, 12]: 99.5% | TGI % Day 30 [5, 12]: 99.9% | TGI % at day 22 ([5]; Dose 0.63 × 3 mg/kg, total dose 1.89 mg/kg): 47% | TGI % at day 22 ([5]; Dose 0.65 × 2 mg/kg, total dose 1.3 mg/kg): 69% | TGI % at day 22 ([5]; Dose 1.2 × 2 mg/kg, total dose 2.4 mg/kg): 77% | TGI % at day 22 ([5]; Dose 2.0 × 2 mg/kg, total dose 4.0 mg/kg): 98% | AUC(0-inf) [6]: 4.45 µM·h | Cmax [6]: 3000 nM | half-life ([6]; read-out: t½ (converted)): 2.05 h | IC50 [7, 13]: 13 nM | IC50 [7, 14]: 545 nM | Ki [8]: 0.021 nM | H69 tumor PK normalized- uM/umol/kg at 1 mpk in 10% PG [9]: Ca. 0.420 uM/umol/kg | half-life [10]: 18.2 h

COc1cc2cc(c1Cl)N(C)C(=O)C[C@H](OC(=O)[C@H](C)N(C)C(=O)CCSSC(C)(C)[C@H](NC(=O)[C@@H]1CSSC[C@H](NC(=O)[C@@H](Cc3ccccc3)NS(C)(=O)=O)C(=O)N[C@@H](Cc3ccc(O)cc3)C(=O)N[C@H](Cc3c[nH]c4ccccc34)C(=O)N[C@@H](CCCCN)C(=O)N[C@@H]([C@@H](C)O)C(=O)N1)C(N)=O)[C@]1(C)O[C@H]1[C@H](C)[C@@H]1C[C@@](O)(NC(=O)O1)[C@H](OC)/C=C/C=C(\C)C2 [Conjugate 10]
Ligand charge [1]: +1 | chromatographic logP [4]: 2.66 | TGI % Day 11 [5]: 48% | TGI % Day 14 [5]: 59% | TGI % Day 18 [5]: 54% | TGI % Day 21 [5]: 53% | TGI % Day 25 [5]: 42% | TGI % Day 13 [5, 15]: 92.2% | TGI % Day 17 [5, 15]: 95.6% | TGI % Day 20 [5, 15]: 97.8% | TGI % Day 24 [5, 15]: 99.5% | TGI % Day 30 [5, 15]: 99.6% | TGI % at day 22 ([5]; Dose 0.60 × 2 mg/kg, total dose 1.20 mg/kg): 53% | TGI % at day 22 ([5]; Dose 1.54 × 2 mg/kg, total dose 3.08 mg/kg): 98% | IC50 [7, 13]: 3.3 nM | IC50 [7, 14]: 246 nM | Ki [8]: 0.035 nM | H69 tumor PK normalized- uM/umol/kg at 1 mpk in 10% PG [9]: 0.546 uM/umol/kg

CCNC(=O)N[C@H](Cc1ccccc1)C(=O)N[C@H]1CSSC[C@@H](C(=O)N[C@@H](CSSCCC(=O)N(C)[C@@H](C)C(=O)O[C@H]2CC(=O)N(C)c3cc(cc(OC)c3Cl)C/C(C)=C/C=C/[C@@H](OC)[C@@]3(O)C[C@H](OC(=O)N3)[C@@H](C)[C@@H]3O[C@@]23C)C(=O)NCC)NC(=O)[C@H]([C@@H](C)O)NC(=O)[C@H](CCCCN)NC(=O)[C@@H](Cc2c[nH]c3ccccc23)NC(=O)[C@H](Cc2ccc(O)cc2)NC1=O [Conjugate 30]
Ligand charge [1]: +1 | chromatographic logP [4]: 2.79 | IC50 [7, 13]: 2.4 nM | IC50 [7, 14]: 27 nM | Ki [8]: 0.071 nM

COc1cc2cc(c1Cl)N(C)C(=O)C[C@H](OC(=O)[C@H](C)N(C)C(=O)CCSSC(C)(C)[C@H](NC(=O)[C@@H]1CSSC[C@H](NC(=O)[C@@H](Cc3ccccc3)NCc3ccccc3)C(=O)N[C@@H](Cc3ccc(O)cc3)C(=O)N[C@H](Cc3c[nH]c4ccccc34)C(=O)N[C@@H](CCCCN)C(=O)N[C@@H]([C@@H](C)O)C(=O)N1)C(N)=O)[C@]1(C)O[C@H]1[C@H](C)[C@@H]1C[C@@](O)(NC(=O)O1)[C@H](OC)/C=C/C=C(\C)C2 [Conjugate 12]
Ligand charge [1]: +2 | chromatographic logP [4]: 2.57 | IC50 [7, 13]: 19.5 nM | IC50 [7, 14]: 331 nM | Ki [8]: 0.02 nM

COc1cc2cc(c1Cl)N(C)C(=O)C[C@H](OC(=O)[C@H](C)N(C)C(=O)CCSSC(C)(C)[C@H](NC(=O)[C@@H]1CSSC[C@H](NC(=O)[C@@H](Cc3ccccc3)NC(=O)Nc3ccccc3)C(=O)N[C@@H](Cc3ccc(O)cc3)C(=O)N[C@H](Cc3c[nH]c4ccccc34)C(=O)N[C@@H](CCCCN)C(=O)N[C@@H]([C@@H](C)O)C(=O)N1)C(N)=O)[C@]1(C)O[C@H]1[C@H](C)[C@@H]1C[C@@](O)(NC(=O)O1)[C@H](OC)/C=C/C=C(\C)C2 [Conjugate 11]
Ligand charge [1]: +1 | chromatographic logP [4]: 2.98 | IC50 [7, 13]: 6.1 nM | IC50 [7, 14]: 232 nM | Ki [8]: 0.034 nM

COc1cc2cc(c1Cl)N(C)C(=O)C[C@H](OC(=O)[C@H](C)N(C)C(=O)CCSSC(C)(C)[C@H](NC(=O)[C@@H]1CSSC[C@H](NC(=O)[C@@H](Cc3ccccc3)NC(=O)NCc3ccccc3)C(=O)N[C@@H](Cc3ccc(O)cc3)C(=O)N[C@H](Cc3c[nH]c4ccccc34)C(=O)N[C@@H](CCCCN)C(=O)N[C@@H]([C@@H](C)O)C(=O)N1)C(N)=O)[C@]1(C)O[C@H]1[C@H](C)[C@@H]1C[C@@](O)(NC(=O)O1)[C@H](OC)/C=C/C=C(\C)C2 [Conjugate 7]
Ligand charge [1]: +1 | chromatographic logP [4]: 2.6 | IC50 [7, 13]: 4.7 nM | IC50 [7, 14]: 181 nM | Ki [8]: 0.025 nM

COc1cc2cc(c1Cl)N(C)C(=O)C[C@H](OC(=O)[C@H](C)N(C)C(=O)CCSSC[C@H](NC(=O)[C@@H]1CSSC[C@H](NC(=O)[C@@H](Cc3ccccc3)NC(=O)NCc3ccccc3)C(=O)N[C@@H](Cc3ccc(O)cc3)C(=O)N[C@H](Cc3c[nH]c4ccccc34)C(=O)N[C@@H](CCCCN)C(=O)N[C@@H]([C@@H](C)O)C(=O)N1)C(N)=O)[C@]1(C)O[C@H]1[C@H](C)[C@@H]1C[C@@](O)(NC(=O)O1)[C@H](OC)/C=C/C=C(\C)C2 [Conjugate 28]
Ligand charge [1]: +1 | chromatographic logP [4]: 2.51 | IC50 [7, 13]: 6.1 nM | IC50 [7, 14]: 31 nM | Ki [8]: 0.057 nM

COc1cc2cc(c1Cl)N(C)C(=O)C[C@H](OC(=O)[C@H](C)N(C)C(=O)CCSSC[C@H](NC(=O)[C@@H]1CSSC[C@H](NC(=O)[C@@H](Cc3ccccc3)NC(=O)NC3CCCCC3)C(=O)N[C@@H](Cc3ccc(O)cc3)C(=O)N[C@H](Cc3c[nH]c4ccccc34)C(=O)N[C@@H](CCCCN)C(=O)N[C@@H]([C@@H](C)O)C(=O)N1)C(N)=O)[C@]1(C)O[C@H]1[C@H](C)[C@@H]1C[C@@](O)(NC(=O)O1)[C@H](OC)/C=C/C=C(\C)C2 [Conjugate 25]
Ligand charge [1]: +1 | chromatographic logP [4]: 2.94 | IC50 [7, 13]: 32 nM | IC50 [7, 14]: 123 nM | Ki [8]: 0.11 nM

COc1cc2cc(c1Cl)N(C)C(=O)C[C@H](OC(=O)[C@H](C)N(C)C(=O)CCSSC[C@H](NC(=O)[C@@H]1CSSC[C@H](NC(=O)[C@@H](Cc3ccccc3)NC(=O)Nc3cc(C(F)(F)F)cc(C(F)(F)F)c3)C(=O)N[C@@H](Cc3ccc(O)cc3)C(=O)N[C@H](Cc3c[nH]c4ccccc34)C(=O)N[C@@H](CCCCN)C(=O)N[C@@H]([C@@H](C)O)C(=O)N1)C(N)=O)[C@]1(C)O[C@H]1[C@H](C)[C@@H]1C[C@@](O)(NC(=O)O1)[C@H](OC)/C=C/C=C(\C)C2 [Conjugate 38]
Ligand charge [1]: +1 | chromatographic logP [4]: 3.47 | IC50 [7, 13]: 261 nM | IC50 [7, 14]: 296 nM | Ki [8]: 5.34 nM
